According to paper PMC6160570, “Maprotiline Prevents Monocrotaline-Induced Pulmonary Arterial Hypertension in Rats” (Frontiers in Pharmacology, 2018):
Like-named read-outs stand apart in the source and are kept apart here.

What was measured:
[1] = molecular target: T1, soluble guanylate cyclase (sGC), α1/β1 heterodimer (Homo sapiens, UniProt Q02108+Q02153); experiment: SPR (Biacore T200, sGC immobilized on CM5 chip), positive control; type: binding; set-up: gene GUCY1B1; full-length recombinant sGC (α1 and β1 subunits coexpressed in Sf9 cells); with sGC α1 subunit (GUCY1A1, Q02108)
T1 sequence (Q02153 1-619): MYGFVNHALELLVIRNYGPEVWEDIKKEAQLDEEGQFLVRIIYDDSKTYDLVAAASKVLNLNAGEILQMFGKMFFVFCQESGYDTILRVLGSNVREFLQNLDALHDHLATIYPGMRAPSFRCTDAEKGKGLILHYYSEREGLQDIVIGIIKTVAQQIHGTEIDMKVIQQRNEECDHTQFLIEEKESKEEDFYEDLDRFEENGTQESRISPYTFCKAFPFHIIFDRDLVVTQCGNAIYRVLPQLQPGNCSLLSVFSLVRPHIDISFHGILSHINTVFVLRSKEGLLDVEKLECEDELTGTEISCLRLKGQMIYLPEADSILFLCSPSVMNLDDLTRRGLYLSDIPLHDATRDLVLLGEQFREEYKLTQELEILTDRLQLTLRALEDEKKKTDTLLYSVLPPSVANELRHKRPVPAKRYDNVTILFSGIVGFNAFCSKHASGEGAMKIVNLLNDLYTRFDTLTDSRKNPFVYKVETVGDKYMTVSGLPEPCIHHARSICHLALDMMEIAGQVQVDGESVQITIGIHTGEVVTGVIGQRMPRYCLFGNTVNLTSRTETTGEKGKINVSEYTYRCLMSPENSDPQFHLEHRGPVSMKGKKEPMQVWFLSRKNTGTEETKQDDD
T1 sequence (Q02108 1-690): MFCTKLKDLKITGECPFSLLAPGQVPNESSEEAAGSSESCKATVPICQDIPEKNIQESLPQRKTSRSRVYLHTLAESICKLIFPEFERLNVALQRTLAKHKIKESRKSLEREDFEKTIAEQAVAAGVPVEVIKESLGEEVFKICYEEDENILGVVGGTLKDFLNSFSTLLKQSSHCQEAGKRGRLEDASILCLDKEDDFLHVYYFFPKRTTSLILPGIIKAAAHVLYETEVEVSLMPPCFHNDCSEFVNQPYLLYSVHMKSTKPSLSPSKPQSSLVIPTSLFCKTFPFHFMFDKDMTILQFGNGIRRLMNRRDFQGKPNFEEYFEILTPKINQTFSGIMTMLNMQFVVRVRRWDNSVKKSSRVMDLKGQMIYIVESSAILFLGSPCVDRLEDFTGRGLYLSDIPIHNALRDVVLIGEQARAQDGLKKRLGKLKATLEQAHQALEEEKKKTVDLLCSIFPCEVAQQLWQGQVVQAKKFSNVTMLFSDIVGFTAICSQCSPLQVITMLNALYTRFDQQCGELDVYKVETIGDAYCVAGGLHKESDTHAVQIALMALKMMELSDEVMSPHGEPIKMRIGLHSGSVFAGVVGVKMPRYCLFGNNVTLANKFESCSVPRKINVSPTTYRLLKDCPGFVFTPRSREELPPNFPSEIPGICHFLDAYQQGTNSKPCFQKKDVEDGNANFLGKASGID

[2] = molecular target: T1, soluble guanylate cyclase (sGC), α1/β1 heterodimer; set-up: gene GUCY1B1

Row | Compound | Kd [1] | Kd [2]
1 | OCc1ccc(-c2nn(Cc3ccccc3)c3ccccc23)o1 [YC-1] | 2180 nM | –
2 | CNCCCC12CCC(c3ccccc31)c1ccccc12 [maprotiline] | – | 307 nM
